Data: patent US10736922B2, “High telomerase activity bone marrow mesenchymal stem cells, methods of producing the same and pharmaceuticals and treatment methods based thereon” (UNIVERSITY OF SOUTHERN CALIFORNIA, priority 2010, dated 2020)

What was measured:
iNOS = target: T1, iNOS (Mus musculus, UniProt P29477); assay: Western blot of iNOS expression; format: cell-based; settings: BMMSCs and tBMMSCs, L-NMMA 1 mM or 1400W 0.2 mM, 3 days
T1 construct: endogenous in cells; host or cells: primary BMMSCs and tBMMSCs
T1 sequence (P29477 1-1144): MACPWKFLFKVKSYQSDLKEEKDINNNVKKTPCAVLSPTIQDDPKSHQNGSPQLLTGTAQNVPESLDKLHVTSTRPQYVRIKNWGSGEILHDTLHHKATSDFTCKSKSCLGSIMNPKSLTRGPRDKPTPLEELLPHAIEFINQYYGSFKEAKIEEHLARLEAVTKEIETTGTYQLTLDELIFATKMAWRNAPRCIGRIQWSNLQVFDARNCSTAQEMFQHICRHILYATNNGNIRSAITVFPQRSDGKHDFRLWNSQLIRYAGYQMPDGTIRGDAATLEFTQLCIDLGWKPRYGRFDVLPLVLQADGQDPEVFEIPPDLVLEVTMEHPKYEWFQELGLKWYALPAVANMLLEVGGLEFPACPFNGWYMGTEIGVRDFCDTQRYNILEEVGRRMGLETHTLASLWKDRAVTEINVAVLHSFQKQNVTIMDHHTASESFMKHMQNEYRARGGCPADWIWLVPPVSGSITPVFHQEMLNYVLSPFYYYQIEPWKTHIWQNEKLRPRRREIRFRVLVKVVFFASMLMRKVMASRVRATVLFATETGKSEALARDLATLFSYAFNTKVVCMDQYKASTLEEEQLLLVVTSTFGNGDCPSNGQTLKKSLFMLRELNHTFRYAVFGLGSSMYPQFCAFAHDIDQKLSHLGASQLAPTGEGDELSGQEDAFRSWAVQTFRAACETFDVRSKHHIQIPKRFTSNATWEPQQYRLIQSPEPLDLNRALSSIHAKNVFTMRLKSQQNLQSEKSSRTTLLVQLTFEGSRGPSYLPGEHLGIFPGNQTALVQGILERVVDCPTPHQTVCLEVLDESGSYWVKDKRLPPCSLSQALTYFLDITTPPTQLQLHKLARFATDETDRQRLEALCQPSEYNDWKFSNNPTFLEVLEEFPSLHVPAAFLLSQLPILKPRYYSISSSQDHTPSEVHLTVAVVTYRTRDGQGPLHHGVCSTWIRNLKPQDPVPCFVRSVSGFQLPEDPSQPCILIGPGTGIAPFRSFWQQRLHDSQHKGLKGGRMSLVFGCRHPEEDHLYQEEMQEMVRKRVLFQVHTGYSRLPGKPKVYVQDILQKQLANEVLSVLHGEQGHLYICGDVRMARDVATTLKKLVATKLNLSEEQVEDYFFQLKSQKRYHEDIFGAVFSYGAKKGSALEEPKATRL
Description: (§1) Western blotting analysis. […] of protein were used and SDS-PAGE and western blotting were performed according to standard procedures. β-actin on the same membrane served as the loading control.
(§2) Inhibitor treatment. tBMMSCs and BMMSCs were treated with 1 mM L-NMMA (Cayman Chemical) or 0.2 mM 1400 W (Cayman Chemical) to inhibit total NOS or iNOS, respectively. Aspirin 50 μg/ml (TAT) and telomerase inhibitor III (1 μM; EMD Chemicals) were used to activate and suppress telomerase activity in cultured BMMSCs, respectively. CHIRON 99021 (1 or 10 μM; Chiron Corporation) and Dickkopf 1 (DKK1, 10 ng/ml, R&D Systems) were used as an activator and inhibitor to regulate β catenin levels in BMMSCs.

activated SP cells [1] = assay: Cell apoptosis assay, Transwell co-culture with activated splenocytes (Annexin V/7AAD); format: cell-based, mouse; settings: for number of early and late apoptotic SP cells in tBMMSC and regular BMMSC groups: L-NMMA 1 mM or 1400W 0.2 mM in co-culture
Description: (§3) Cell apoptosis and cell survival assay. Transwell system (Corning) was used for co-culture experiments. 0.2×10^6 of tBMMSCs or BMMSCs were seeded on each lower chamber. In the upper chambers, activated splenocytes (1×10^6/chamber), which were pre-stimulated with plate-bounded anti CD3ε antibody (5 μg/ml) and soluble anti CD28 antibody (2 μg/ml) for 3 days, were loaded. Both chambers were filled with a complete medium containing Dulbecco's Modified Eagle Medium (DMEM, Lonza) with 10% heat-inactivated FBS, 50 μM 2-mercaptoethanol, 10 mM HEPES, 1 mM sodium pyruvate (Sigma), 1% non-essential amino acid (Cambrex), 2 mM L-glutamine, 100 U/ml penicillin and […] streptomycin. To measure the splenocyte viability, cell counting kit-8 (Dojindo Molecular Technoloies) were used. For apoptosis of splenocyte analysis, Annexin V-PE apoptosis detection kit I (BD Bioscience) were used and analyzed on FACS^Calibur (BD Bioscience).

CD4^+CD25^+Foxp3^+ Tregs = assay: In vitro CD4+CD25+Foxp3+ Tregs induction; format: cell-based, mouse; settings: L-NMMA 1 mM or 1400W 0.2 mM
Description: In vitro CD4^+CD25^+Foxp3^+Tregs induction. CD4^+CD25^− T-lymphocytes (1×10^6/well), collected by CD4^+CD25^+ regulatory T-cell Isolation kit (Miltenyi Biotec), were pre-stimulated with plate bounded anti CD3E antibody (5 μg/ml) and soluble anti CD28 antibody (2 μg/ml) for 3 days. These activated T-lymphocytes were loaded on 0.2×10^6 of BMMSC or tBMMSC cultures with recombinant human TFGβ1 (2 μg/ml) (R&D Systems) and recombinant mouse IL2 (2 μg/ml) (R&D Systems). After 3 days, cells in suspension were collected and stained with anti CD4-PerCP, anti CD8a-FITC, anti CD25-APC antibodies (each 1 μg) for 45 min on ice under dark condition. And then cells were stained with anti Foxp3-PE antibody (1 μg) using Foxp3 staining buffer kit (eBioscience) for cell fixation and permeabilization. The cells were analyzed on FACS^Calibur (BD Bioscience).

NO production in BMMSCs = assay: Measurement of nitric oxide production in BMMSC culture supernatant; format: cell-based, mouse
Description: as §2
Measurement of nitric oxide production. BMMSCs (0.2×10^6/well) were cultured on 24-well plates with or without cytokines (IFNγ, 25 ng/ml; IL-1β, 5 ng/ml, R&D Systems) and chemicals (L-NMMA, 1 mM; 1400W, 0.2 mM; aspirin, 50 μg/ml; Telomerase inhibitor III, 1 μM; CHIRON 99021, 1 or 10 μM; DKK1, 10 ng/ml) at indicated concentration and days. The same chemical concentration was also used in combination treatment such as DKK and aspirin or Telomerase inhibitor and CHIRON99021. The supernatant from each culture was collected and measured nitric oxide concentration using Total Nitric Oxide and Nitrate/Nitrite Parameter Assay kit (R&D Systems) according to manufacturer's instruction.

activated SP cells [2] = assay: Cell survival assay, Transwell co-culture with activated splenocytes (cell counting kit-8); format: cell-based, mouse; settings: for tBMMSC / BMMSC effect on cell viability of activated SP cells: L-NMMA 1 mM or 1400W 0.2 mM in co-culture
Description: as §3

active β-catenin = assay: Western blot of active beta-catenin in BMMSCs; format: cell-based, mouse
Description: as §1, §2

telomerase [3] = assay: Telomerase activity, TeloTAGGG Telomerase PCR ELISA kit, mouse BMMSC cultures; format: cell-based
Description: as §2
Measurement of telomerase activity. The Telomerase activity was measured using TeloTAGGG Telomerase PCR ELISA kit (Roche).

[4] = system: telomerase reverse transcriptase (TERT); assay: Western blot of TERT expression; format: cell-based, mouse; settings: aspirin treatment, one week
Description: as §1

[5] = system: CD73, Sca-1, Oct4, SSEA4, CD34, CD45; assay: Flow cytometric analysis of mesenchymal stem cell surface molecules; format: cell-based, mouse; settings: aspirin treatment
Description: Flow cytometric analysis of mesenchymal stem cell surface molecules. BMMSCs or pBMMSCs (0.2×10^6) were incubated with 1 µg of PE conjugated antibodies or isotype-matched control IgGs (Southern Biotech) at 4° C. for 45 min. Samples were analyzed by FACS^Calibur flow cytometer (BD Bioscience). For dual color analysis, the cells were treated with PE conjugated and FITC conjugated antibodies or isotype-matched control IgGs (each 1 […]g). The cells were analyzed on FACS^Calibur (BD Bioscience).

telomerase [6] = assay: Telomerase activity in human BMMSCs, Telo TAGGG Telomerase PCR ELISA kit; format: cell-based; settings: aspirin in culture medium at 2.5 μg/ml or 50 μg/ml for 1 week
[7] = L-NMMA 1 mM or 1400W 0.2 mM, 3 days
[8] = BMMSCs treated with aspirin (TAT) prior to co-culture

Compound: CC(=N)NCc1cccc(CN)c1 [1400W]
- iNOS expression (iNOS): inhibited
- inhibition of early apoptotic SP cells, tBMMSC group compared to regular BMMSC group (activated SP cells [1]; 1400W 0.2 mM): significantly greater inhibition
- number of early and late apoptotic SP cells in tBMMSC and regular BMMSC groups (activated SP cells [1]): significantly reduced
- BMMSC- and tBMMSC-induced up-regulation of Tregs (CD4^+CD25^+Foxp3^+ Tregs): inhibit
- NO production in BMMSCs (NO production in BMMSCs; [7]): inhibit NO production
- tBMMSC / BMMSC effect on cell viability of activated SP cells (activated SP cells [2]): significantly block tBMMSC, but not regular BMMSC, induced cell viability

Compound: Cc1cnc(-c2cnc(NCCNc3ccc(C#N)cn3)nc2-c2ccc(Cl)cc2Cl)[nH]1 [Chiron 99021]
- active beta-catenin in BMMSCs (active β-catenin; Chiron 99021, 7 days): elevation of active beta-catenin in a dose-dependent manner
- NO production in BMMSCs (NO production in BMMSCs; Chiron 1 and 10 μM, 1 week): up-regulated NO production in BMMSCs in a dose-dependent manner
- Telomerase activity in BMMSCs (telomerase [3]; Chiron treatment, 7 days): elevated telomerase activity

Compound: CNC(=N)NCCC[C@H](N)C(=O)O [L-NMMA, NG-monomethyl-L-arginine]
- iNOS expression (iNOS): inhibited
- number of early and late apoptotic SP cells in tBMMSC and regular BMMSC groups (activated SP cells [1]): significantly reduced
- BMMSC- and tBMMSC-induced up-regulation of Tregs (CD4^+CD25^+Foxp3^+ Tregs): inhibit
- NO production in BMMSCs (NO production in BMMSCs; [7]): inhibit NO production
- tBMMSC / BMMSC effect on cell viability of activated SP cells (activated SP cells [2]): significantly block tBMMSC, but not regular BMMSC, induced cell viability

Compound: CC(=O)Oc1ccccc1C(=O)O [aspirin]
- telomerase reverse transcriptase (TERT) expression in BMMSCs [4]: significantly elevated
- BMMSC-induced early and late apoptosis of activated SP cells (activated SP cells [1]; [8]): elevation of early and late apoptosis
- CD34 expression in BMMSCs [5]: elevates CD34 expression
- DKK1-induced down-regulation of activated beta-catenin (active β-catenin; aspirin (TAT) treatment): partially block
- NO production in BMMSCs (NO production in BMMSCs; regular BMMSCs cultured with aspirin for one week): significantly elevated
- BMMSC-induced reduction of activated SP cell viability (activated SP cells [2]; [8]): promote BMMSC-induced reduction of activated SP cell viability
- Telomerase activity in BMMSCs (telomerase [3]; regular BMMSCs cultured with aspirin (50 μg/ml) for one week): significantly elevated
- Telomerase activity in human BMMSCs (telomerase [6]): significantly increased level of telomerase activity

Compound: DKK1: Wnt inhibitor, Dickkopf 1 (R&D Systems)
- activated β-catenin level in BMMSCs (active β-catenin; DKK1 10 ng/ml): reducing activated β-catenin level
- aspirin-induced NO production in BMMSCs (NO production in BMMSCs; DKK1 10 ng/ml added prior to aspirin (TAT) treatment, three days): significantly block
- aspirin (TAT)-induced telomerase activity in BMMSCs (telomerase [3]; DKK1 10 ng/ml, DKK-TAT): capable of blocking
